The record followed here is patent publication US20200055839A1 (priority 2017, published 2020).

pEC50: −log10 of the molar value.

For this assay, the system named is NL-RLuc virus. In words: Inhibition of HIV replication (NL-RLuc virus, luciferase readout in MT-2 cells). It is filed as cell-based. The following applies: Human immunodeficiency virus 1, MT2, 120 h, MT-2 cells infected with NL-RLuc virus, 5 days of incubation, 10% FBS, at least 2 experiments. An outline of the steps: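 MT-2 cells infected with NL4-3-derived virus carrying Renilla luciferase in place of part of nef, grown 5 days with serial compound dilutions in RPMI 1640/10% FBS. Virus growth read as luciferase expression. EC50 from median effect equation, at least 2 experiments.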
In turn, `CC1(C)CCN(c2c(-c3ccc(OCCc4ccc(F)cc4)c(F)c3)cnc(C#N)c2[C@H](OC(C)(C)C)C(=O)O)CC1` [Example 217, (S)-2-(tert-Butoxy)-2-(2-cyano-4-(4,4-dimethylpiperidin-1-yl)-5-(3-fluoro-4-(4-fluorophenethoxy)phenyl)pyridin-3-yl)acetic acid] showed a pEC50 of 8.00.
For `Cc1nc(Nc2ncccn2)c(-c2ccc(OCCc3ccc(F)cc3)c(F)c2)c(N2CCC(C)(C)CC2)c1[C@H](OC(C)(C)C)C(=O)O` [Example 105, (S)-2-(tert-Butoxy)-2-(4-(4,4-dimethylpiperidin-1-yl)-5-(3-fluoro-4-(4-fluorophenethoxy)phenyl)-2-methyl-6-(pyrimidin-2-ylamino)pyridin-3-yl)acetic acid] the value was 8.40; for `Cc1ncc(-c2cccc3cccnc23)c(N2CCC(C)(C)CC2)c1[C@H](OC(C)(C)C)C(=O)O` [Example 184, (2S)-2-(tert-Butoxy)-2-[4-(4,4-dimethylpiperidin-1-yl)-2-methyl-5-(quinolin-8-yl)pyridin-3-yl]acetic acid], 8.10; for `Cc1nc(Nc2ccnnc2)c(-c2ccc(OCCc3ccc(F)cc3)c(F)c2)c(N2CCC(C)(C)CC2)c1[C@H](OC(C)(C)C)C(=O)O` [Example 74, (S)-2-(tert-Butoxy)-2-(4-(4,4-dimethylpiperidin-1-yl)-5-(3-fluoro-4-(4-fluorophenethoxy)phenyl)-2-methyl-6-(pyridazin-4-ylamino)pyridin-3-yl)acetic acid], 8.70.
On to `Cc1ncc(-c2ccc(F)nc2OCCc2ccc(F)cc2)c(N2CCC(C)(C)CC2)c1[C@H](OC(C)(C)C)C(=O)O` (single isomer, unassigned) [Example 262], for which the pEC50 is 5.95.
For `Cc1ncc(-c2ccc(OCCc3ccc(Cl)cc3)cn2)c(N2CCC(C)(C)CC2)c1[C@H](OC(C)(C)C)C(=O)O` [Example 309, (2S)-2-(tert-butoxy)-2-{5-[2-(4-chlorophenyl)ethoxy]-4′-(4,4-dimethylpiperidin-1-yl)-6′-methyl-[2,3′-bipyridine]-5′-yl}acetic acid] the value was 9.40; for `COc1nc(OCC(C)C)ccc1-c1cnc(C)c([C@H](OC(C)(C)C)C(=O)O)c1N1CCC(C)(C)CC1` [Example 413, (S)-2-(tert-Butoxy)-2-(4-(4,4-dimethylpiperidin-1-yl)-6′-isobutoxy-2′-methoxy-6-methyl-[3,3′-bipyridin]-5-yl)acetic acid], 7.80.
For `Cc1ncc(-c2ccc(OCCc3cccc(Cl)c3)cc2)c(N2CCC(C)(C)CC2)c1[C@H](OC(C)(C)C)C(=O)O` [Example 364, (2S)-2-(tert-butoxy)-2-(5-{4-[2-(3-chlorophenyl)ethoxy]phenyl}-4-(4,4-dimethylpiperidin-1-yl)-2-methylpyridin-3-yl)acetic acid] the value was 8.70; for `Cc1ncc(-c2cnc(O)c(F)c2)c(N2CCC(C)(C)CC2)c1[C@H](OC(C)(C)C)C(=O)O` [Example 387, (2S)-2-(tert-butoxy)-2-[4-(4,4-dimethylpiperidin-1-yl)-5′-fluoro-6′-hydroxy-6-methyl-[3,3′-bipyridine]-5-yl]acetic acid], 5.40.
For `Cc1nc(Nc2ccc(C(=O)O)cn2)c(-c2ccc(OCCc3ccc(F)cc3)cc2)c(N2CCC(C)(C)CC2)c1[C@H](OC(C)(C)C)C(=O)O` [Example 101, (S)-6-((5-(tert-Butoxy(carboxy)methyl)-4-(4,4-dimethylpiperidin-1-yl)-3-(4-(4-fluorophenethoxy)phenyl)-6-methylpyridin-2-yl)amino)nicotinic acid] the value was 8.00; for `Cc1ncc(-c2ccc(OCC(C)C)nc2Cl)c(N2CCC(C)(C)CC2)c1[C@H](OC(C)(C)C)C(=O)O` [Example 431, (2S)-2-tert-Butoxy-2-(2′-chloro-4-(4,4-dimethylpiperidin-1-yl)-6′-isobutoxy-6-methyl-3, 3′-bipyridin-5-yl)acetic acid], 7.49.
For `CCc1ncc(-c2ccc(OCC(C)C)cn2)c(N2CCC(C)(C)CC2)c1[C@H](OC(C)(C)C)C(=O)O` [Example 277, (S)-2-(tert-Butoxy)-2-(4′-(4,4-dimethylpiperidin-1-yl)-6′-ethyl-5-isobutoxy-[2, 3′-bipyridin]-5′-yl)acetic acid], the negative-log EC50 (pEC50) is 8.22.
For `Cc1ncc(-c2cc(F)ccc2F)c(N2CCC(C)(C)CC2)c1[C@H](OC(C)(C)C)C(=O)O` [Example 130, (2S)-2-(tert-Butoxy)-2-[5-(2,5-difluorophenyl)-4-(4,4-dimethylpiperidin-1-yl)-2-methylpyridin-3-yl]acetic acid], the pEC50 was 7.89.
For `Cc1nc(-n2cncc2C)c(-c2ccc(OCCc3ccc(F)cc3)cc2)c(N2CCC(C)(C)CC2)c1[C@H](OC(C)(C)C)C(=O)O` (single isomer, unassigned) [Example 55] the value was 8.52; for `Cc1cn(-c2nc(C)c([C@H](OC(C)(C)C)C(=O)O)c(N3CCC(C)(C)CC3)c2-c2ccc(OCCc3ccc(F)cc3)cc2)c(C)n1` [Example 53, (S)-2-(tert-Butoxy)-2-(6-(2,4-dimethyl-1H-imidazol-1-yl)-4-(4,4-dimethylpiperidin-1-yl)-5-(4-(4-fluorophenethoxy)phenyl)-2-methylpyridin-3-yl)acetic acid], 8.52.
For `Cc1nc(Nc2ccncc2)c(-c2ccc(OCCc3ccc(F)cc3)c(F)c2)c(N2CCC(C)(C)CC2)c1[C@H](OC(C)(C)C)C(=O)O` [Example 104, (S)-2-(tert-Butoxy)-2-(4-(4,4-dimethylpiperidin-1-yl)-5-(3-fluoro-4-(4-fluorophenethoxy)phenyl)-2-methyl-6-(pyridin-4-ylamino)pyridin-3-yl)acetic acid] the value was 9.15.
For the compound `Cc1nc(NCCCN2CCN(C)CC2)c(-c2ccc(OCCc3ccc(F)cc3)cc2)c(N2CCC(C)(C)CC2)c1[C@H](OC(C)(C)C)C(=O)O` [Example 52, (S)-2-(tert-Butoxy)-2-(4-(4,4-dimethylpiperidin-1-yl)-5-(4-(4-fluorophenethoxy)phenyl)-2-methyl-6-((3-(4-methylpiperazin-1-yl)propyl)amino)pyridin-3-yl)acetic acid], the negative-log EC50 (pEC50) is 9.00. This pEC50 and that of the compound before are within 0.2 log units of each other.
For `Cc1ncc(-c2cnc(OCCc3ccc(F)cc3)c(Cl)c2)c(N2CCC(C)(C)CC2)c1[C@H](OC(C)(C)C)C(=O)O` [Example 250, (S)-2-(tert-Butoxy)-2-(5′-chloro-4-(4,4-dimethylpiperidin-1-yl)-6′-(4-fluorophenethoxy)-6-methyl-[3, 3′-bipyridin]-5-yl)acetic acid] the value was 8.70; for `COc1ccc(COc2ccc(-c3cnc(C)c([C@H](OC(C)(C)C)C(=O)O)c3N3CCC(C)(C)CC3)nc2)c(OC)c1` [Example 358, (2S)-2-(tert-butoxy)-2-{5-[(2,4-dimethoxyphenyl)methoxy]-4′-(4,4-dimethylpiperidin-1-yl)-6′-methyl-[2,3′-bipyridine]-5′-yl}acetic acid], 8.92.
For `CC1(C)CCN(c2c(-c3ccc(OCCc4ccc(F)cc4)cc3)cnc(Cl)c2[C@H](OC(C)(C)C)C(=O)O)CC1` [Example 211, (S)-2-(tert-Butoxy)-2-(2-chloro-4-(4,4-dimethylpiperidin-1-yl)-5-(4-(4-fluorophenethoxy)phenyl)pyridin-3-yl)acetic acid] the value was 8.52.

In general, pEC50 refers to the EC50 on a negative log10 scale, so that one unit is a factor of ten. Read a high pEC50 as a low EC50.
